# Measured values from patent US20230302071A1, “ANTIDEPRESSANT COMPOSITION CONTAINING PLEUROTUS ERYNGII EXTRACT AS ACTIVE INGREDIENT” (KOREA UNIVERSITY RESEARCH AND BUSINESS FOUNDATION, priority 2020, published 2023).
# How the values were obtained:
# [1] = test system: serotonin receptor-mediated signaling in AGS cell line; assay: Serotonin receptor-mediated signaling in AGS cell line by Western blotting (pErk, pJNK); assay type: cell-based, human; conditions: FIG. 4
# Experimental: Whether the fractions of the Pleurotus eryngii extract according to the present invention were involved in serotonin receptor-mediated signaling by treating an AGS cell line known to overexpress serotonin receptors with the fractions of the Pleurotus eryngii extract according to the present invention was evaluated using Western blotting. Here, an anti-pERK antibody, anti-Erk antibody, anti-pJNK antibody, anti-JNK antibody, and anti-α Tubulin antibody were used for western blotting.
# mice = assay: Forced swimming test (FST), immobility time; assay type: in vivo; conditions: intraperitoneal, each sample 20 mg/kg, 30 minutes before test, 4-minute period, FIG. 5
# Experimental: In order to verify whether the fractions of the Pleurotus eryngii extract according to the present invention actually have antidepressant efficacy, a forced swimming test was performed using experimental animals. The antidepressant efficacy was determined by measuring the immobility time during a forced swimming test, and the less the immobility time, the greater the antidepressant efficacy. To this end, mice were intraperitoneally injected with each of the ethanol extract of Pleurotus eryngii according to the present invention and the primary fraction and the secondary fraction of the ethanol extract, after which the immobility time during a forced swimming test was measured. Each sample was injected in an amount of 20 mg/kg into experimental mice. Also, a Prozac-administered group was used as a positive control. Four mice (n=4) were intraperitoneally injected with each sample and then allowed to stand for 30 minutes, after which the mice were submerged in water for 6 minutes and then washed for a while, water in the water tank was exchanged, and the mice were placed again in the water tank for 4 minutes to conduct this experiment. Statistical processing was performed by measuring the immobility time during the 4-minute experimental period.
Structure (SMILES),expression of phosphorylated pErk [1],expression of phosphorylated pJNK [1],reduction in immobility time compared to negative control (mice)
NCCc1c[nH]c2ccc(O)cc12 [serotonin],increased,increased,
CNCCC(Oc1ccc(C(F)(F)F)cc1)c1ccccc1 (stereo not drawn) [Prozac],,,24%
